The text below walks through data of US12564560B1, “Selective serotonin receptor modulators and methods of making and using the same” (Park City Bio, LLC, priority 2024, dated 2026).

pEC50: −log10 of the molar value. A value given as a limit tells only on which side of the number the result lay.

What all share (type): cell-based
For assay [1], the target named is T1, 5-HT2C (Homo sapiens, UniProt P28335).
T1 sequence (P28335 33-458): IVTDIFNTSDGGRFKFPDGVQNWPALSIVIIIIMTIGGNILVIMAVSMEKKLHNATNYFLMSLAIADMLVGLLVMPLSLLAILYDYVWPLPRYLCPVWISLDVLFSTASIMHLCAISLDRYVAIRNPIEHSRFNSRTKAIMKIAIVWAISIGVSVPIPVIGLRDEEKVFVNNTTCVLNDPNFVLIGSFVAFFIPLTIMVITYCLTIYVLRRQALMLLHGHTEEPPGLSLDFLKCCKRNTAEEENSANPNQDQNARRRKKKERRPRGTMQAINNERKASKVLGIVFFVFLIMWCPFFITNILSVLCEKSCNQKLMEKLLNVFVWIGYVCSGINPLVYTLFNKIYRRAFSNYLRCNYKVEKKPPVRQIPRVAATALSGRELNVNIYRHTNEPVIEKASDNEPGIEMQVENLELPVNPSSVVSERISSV
In words: 5-HT2 receptor-mediated Gq activation via Gq/γ1 dissociation BRET. Further details: expressed in transfected cells; host or cells: HEK293T. An excerpt: (§1) To measure 5-HT2 receptor-mediated Gq activation via Gq/y1 dissociation as measured by Bioluminescence Resonance Energy Transfer (BRET) (McCorvy J D, Wacker D, Wang S, Agegnehu B, Liu J, Lansu K, Tribo AR, Olsen RHJ, Che T, Jin J, Roth BL. Structural determinants of 5-HT2B receptor activation and biased agonism. Nat Struct Mo/Biol. 2018; 25(9): 787-96), HEK293T cells were sub-cultured in Dulbecco's Modified Eagle Medium (DMEM) supplemented with 10% dialyzed fetal bovine serum (FBS) and were co-transfected in a 1:1:1:1 ratio with Rluc8-fused human Gaq (Gaq-Rluc8), a GFP2-fused to the C-terminus of human Gy1(Gy1-GFP2), human GI31, and 5-HT2 receptor using TransiT-2020. After at least 18-24 hours, transfected cells were plated in poly-lysine coated 96-well white clear bottom cell culture plates in DMEM containing 1% dialyzed FBS at a density of 25,000-40,000 cells in 200 μL per well and incubated overnight. The following day, medium was decanted, and cells were washed with 60 μL of drug buffer (1×HBSS, 20 mM HEPES, pH 7.4), then 60 μL of drug buffer was added per well. Cells were pre-incubated at in a humidified atmosphere at 37° C. before receiving drug stimulation. Drug stimulation utilized 30 μL addition of drug (3X) diluted in McCorvy buffer (1×HBSS, 20 mM HEPES, pH 7.4, supplemented with 0.3% BSA fatty acid free, 0.03% ascorbic acid) and plates were incubated at for 1 hour at 37° C. Substrate addition occurred 15 minutes before reading and utilized 10 μL of the Rluc substrate coelenterazine 400a for Gq dissociation BRET^2 (Prolume/Nanolight, 5 μM final concentration). Plates were read for luminescence at 400 nm and fluorescent GFP2 emission at 510 nm at 1 second per well using a Mithras LB940 multimode microplate reader (e.g. one provided by Berthold). The BRET ratios of fluorescence/luminescence were calculated per well and were plotted as a function of drug concentration using Graphpad Prism 8 (Graphpad Software Inc., San Diego, CA). Data were normalized to % 5-HT stimulation and analyzed using nonlinear regression “log(agonist) vs. response” to yield Emax and EC50 parameter estimates. Results are shown in Table 5, where A=<10; B=10 to <100; C=100 to 1000 and D=>1000; +++=>80%; ++=50 to 80%; and +=<50%; NA=No Activity. […] Hallucinogenic (“Hall”) or non-hallucinogenic (“N-Hall”) plastogenic effect is predicted for compounds based on the level 5-HT2A agonist efficacy.
On the technique in general: BRET reads energy transfer from a luciferase to a nearby fluorophore.

In the next assay the target is T2, 5-HT2A (Homo sapiens, UniProt P28223).
T2 construct: expressed in transfected cells; host or cells: HEK293T
Described as above. As to conditions: for pEC50: HEK293T cells; for Hall or N-Hall?: hallucinogenic or non-hallucinogenic effect predicted from level of 5-HT2A agonist efficacy.
From the text: as §1

Assay [2] deals with T1, 5-HT2C. As to the kind of experiment: 5-HT2C Gq signaling bias compared to β-arrestin signaling. On the set-up: expressed in transfected cells; host or cells: HEK293T (Gq arm; β-arrestin arm not described). The settings on record: primary 5-HT2C signaling via Gq compared to β-arrestin. An excerpt: To measure 5-HT2 receptor-mediated Gq activation via Gq/y1 dissociation as measured by Bioluminescence Resonance Energy Transfer (BRET) (McCorvy J D, Wacker D, Wang S, Agegnehu B, Liu J, Lansu K, Tribo AR, Olsen RHJ, Che T, Jin J, Roth BL. Structural determinants of 5-HT2B receptor activation and biased agonism. Nat Struct Mo/Biol. 2018; 25(9): 787-96), HEK293T cells were sub-cultured in Dulbecco's Modified Eagle Medium (DMEM) supplemented with 10% dialyzed fetal bovine serum (FBS) and were co-transfected in a 1:1:1:1 ratio with Rluc8-fused human Gaq (Gaq-Rluc8), a GFP2-fused to the C-terminus of human Gy1(Gy1-GFP2), human GI31, and 5-HT2 receptor using TransiT-2020. After at least 18-24 hours, transfected cells were plated in poly-lysine coated 96-well white clear bottom cell culture plates in DMEM containing 1% dialyzed FBS at a density of 25,000-40,000 cells in 200 μL per well and incubated overnight. The following day, medium was decanted, and cells were washed with 60 μL of drug buffer (1×HBSS, 20 mM HEPES, pH 7.4), then 60 μL of drug buffer was added per well. Cells were pre-incubated at in a humidified atmosphere at 37° C. before receiving drug stimulation. […] Substrate addition occurred 15 minutes before reading and utilized 10 μL of the Rluc substrate coelenterazine 400a for Gq dissociation BRET^2 (Prolume/Nanolight, 5 μM final concentration). Plates were read for luminescence at 400 nm and fluorescent GFP2 emission at 510 nm at 1 second per well using a Mithras LB940 multimode microplate reader (e.g. one provided by Berthold). The BRET ratios of fluorescence/luminescence were calculated per well and were plotted as a function of drug concentration using Graphpad Prism 8 (Graphpad Software Inc., San Diego, CA). Data were normalized to % 5-HT stimulation and analyzed using nonlinear regression “log(agonist) vs. response” to yield Emax and EC50 parameter estimates. […]

The next assay deals with T3, 5-HT2B (Homo sapiens, UniProt P41595).
T3 construct: expressed in transfected cells; host or cells: HEK293T
As to the kind of experiment: 5-HT2 receptor-mediated Gq activation via Gq/γ1 dissociation BRET. As to conditions: HEK293T cells.
From the text: as §1

T2 sequence (P28223 whole entry): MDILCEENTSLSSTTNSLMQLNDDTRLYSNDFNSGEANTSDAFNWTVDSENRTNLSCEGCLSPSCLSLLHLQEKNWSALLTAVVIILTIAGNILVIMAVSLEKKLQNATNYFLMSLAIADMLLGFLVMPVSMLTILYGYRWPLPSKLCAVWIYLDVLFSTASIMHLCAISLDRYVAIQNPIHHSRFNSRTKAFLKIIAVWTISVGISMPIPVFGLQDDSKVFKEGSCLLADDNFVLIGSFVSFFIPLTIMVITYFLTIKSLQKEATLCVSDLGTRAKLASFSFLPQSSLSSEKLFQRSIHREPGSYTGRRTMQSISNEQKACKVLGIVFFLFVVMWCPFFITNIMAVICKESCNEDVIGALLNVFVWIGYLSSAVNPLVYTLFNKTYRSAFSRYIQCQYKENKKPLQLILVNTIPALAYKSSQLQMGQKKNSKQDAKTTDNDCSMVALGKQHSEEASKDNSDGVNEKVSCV
T3 sequence (P41595 whole entry): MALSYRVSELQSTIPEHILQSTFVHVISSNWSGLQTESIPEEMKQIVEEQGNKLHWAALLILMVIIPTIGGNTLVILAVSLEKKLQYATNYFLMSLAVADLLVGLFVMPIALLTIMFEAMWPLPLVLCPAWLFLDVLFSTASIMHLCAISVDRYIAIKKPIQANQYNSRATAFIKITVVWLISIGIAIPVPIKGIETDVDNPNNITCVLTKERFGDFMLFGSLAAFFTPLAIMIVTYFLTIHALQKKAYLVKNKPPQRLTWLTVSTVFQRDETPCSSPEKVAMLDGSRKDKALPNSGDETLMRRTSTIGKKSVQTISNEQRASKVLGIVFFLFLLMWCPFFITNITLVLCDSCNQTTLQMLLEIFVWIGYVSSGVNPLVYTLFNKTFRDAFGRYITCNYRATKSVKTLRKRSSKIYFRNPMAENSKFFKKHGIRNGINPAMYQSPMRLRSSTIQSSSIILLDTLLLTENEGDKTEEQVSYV

Turning to `CSc1ccc(F)cc1C1CC1CN(C)C` (stereo not drawn), the pEC50 (commonly the negative decadic logarithm of the EC50, by convention in mol/L) was 7.00 to 8.00 on 5-HT2C [1] and less than 6.00 on 5-HT2A (Gq dissociation BRET). Further, the Emax (in general, the maximal effect, on the per cent scale that the assay sets) at 5-HT2C [1] (read-out: 5-HT2C Emax) is less than 50%; at 5-HT2A (Gq dissociation BRET, normalized to % 5-HT stimulation), less than 50%. Also, at 5-HT2A, the “Hall or N-Hall?” value was “N-Hall”. At 5-HT2C [2], the “5-HT2C Gq signaling bias?” value is “Yes”.
With `CNC[C@H]1C[C@@H]1c1cc(F)ccc1OC`, the pEC50 on 5-HT2C [1] was 7.00 to 8.00; at 5-HT2B, 7.00 to 8.00; on 5-HT2A (Gq dissociation BRET), 6.00 to 7.00. For the same molecule, the “Hall or N-Hall?” value at 5-HT2A was “N-Hall”. Moreover, the “5-HT2C Gq signaling bias?” value at 5-HT2C [2] is listed as “Yes”.
Regarding `CNCC1CC1c1cc(F)ccc1SC` (stereo not drawn), the pEC50 on 5-HT2C [1] was greater than 8.00; on 5-HT2A (Gq dissociation BRET), 6.00 to 7.00. Also, the “Hall or N-Hall?” value at 5-HT2A is listed as “N-Hall”. At 5-HT2C [2], the “5-HT2C Gq signaling bias?” value is “Yes”.
